From patent US20230304058A1, “NOVEL 5'CAP ANALOG HAVING CAP2 STRUCTURE AND PREPARATION METHOD THEREFOR” (Shenzhen Rhegen Biotechnology Co., Ltd., priority 2020, published 2023)

Assays:
mRNA = mRNA capping rate by RNase H cleavage and LC-MS; type: biochemical; conditions: ratio of capped and uncapped mRNA
Text: The mRNA molecules with different Cap structures obtained in Example 1 were subjected to enzymatic cleavage, and the ratio of capped and uncapped mRNA molecules could be determined in a liquid chromatography-mass spectrometry analysis experiment.
1. Concentrate the beads using a magnet, aspirate the supernatant storage solution, and add an equal volume of 0.1 M NaOH +0.05 M NaCl;
2. Aspirate the supernatant and resuspend the beads with an equal volume of 0.1 M NaCl, keep the concentration constant;
3. Anneal mRNA and cleavage tags, configure the following reaction system;
Gradient annealing: 95° C. 5 min
4. Combining cleavage tags with beads • Beads were centrifuged at 15,000 g for 5 min, and the supernatant was removed, then 120 μl of annealed mRNA and tags were added and incubated for 30 min at room temperature, during which time they were gently shaken to ensure adequate binding.
5. Enzyme cleavage using RNase H; • Add 10 μl RNase H and incubate at 37° C. for 3 h. Precipitate the beads with magnet and discard the supernatant. • Add 100 μl washing buffer, mix thoroughly, magnet precipitate for 2 min, and discard the supernatant. Repeat 3 times. • Wash with DI water for 3 times.
6. Hydrolysis with RppH; • Use 10 units RppH in nebuffer 2 to hydrolyze at room temperature for 1 h.
DI water was aspirated, 100 μl of 75% ethanol preheated to 80° C. was added, incubat for 3 min, and magnet precipitat for 3 min. The supernatant was taken, followed by evaporating, and centrifuge for 45 min to a volume of 10 μl. Finally, the sample was resuspended in 50 μl of […] EDTA/1% MeOH and left for LC-MS analysis.
9. the mRNA capping rate of different Cap analogs synthesized was analyzed with LC-MS.

T7 Enzyme Mix = T7 Enzyme Mix (Escherichia phage T7, UniProt P00573); test: In vitro transcription mRNA synthesis with cap analog, reaction yield; type: biochemical; conditions: per ml transcription reaction system; 37° C. for 6 h; LiCl purification
Description: 1. Before synthesizing mRNA, linearize the plasmid with Notl, digested at […] overnight;
2. Extract with DNA template;
React at 37° C. for 6 h. Digest with TURBO DNase for 15 min.
4. Purify the transcription products using LiCl solution and calculate the reaction yields.

[1] = tested on: TLR3, TLR7, TLR8 and RIG-1; test: Intracellular immunogenicity of capped mRNA by RNA immunoprecipitation and quantitative PCR; type: cell-based; conditions: relative to ARCA; Human-derived PBMC cells, 5 μg mRNA, Lipofectamine 2000, 24 h
Description: Experimental methods: the intracellular immunoproteins TLR3, TLR7, TLR8 and RIG-1 were immunoprecipitated together with their bound RNAs by RNA immunoprecipitation, and finally these mRNAs were identified by real-time quantitative PCR, and their relative abundance was proportional to their immunogenicity.
The cells were collected by trypsin digestion 24 h later and resuspended in PBS, centrifuged, and collected.
Fixative was added to the cells, and after 15 minutes glycine was added for termination of fixation, followed by centrifugation to collect the cells. Cells were resuspended by adding lysate, incubated on ice at 4° C. for 30 min, centrifuged at 2400 g for 10 min, and the supernatant was collected.
TLR3, TLR7, TLR8 and RIG-1 antibodies (2-10 μg) were added to the supernatant (6-10 mg) followed by gentle incubation at 4° C. for 2 hours. Protein AIG beads (40 μL) were then added to them and incubated gently for 1 h at 4° C.
Centrifuge at 2500 rpm for 30 seconds with precipitated magnetic beads and remove the supernatant. Resuspend the beads in 500 μL of RIP buffer. Wash in RIP buffer a total of three times, followed by one wash in PBS.
Resuspend magnetic beads in TRIzol RNA Extraction Reagent (1 mL) and isolate co-precipitated RNA, and then elute RNA using nuclease-free water (20 μL).
6. Reverse transcribe (RT) the RNA into cDNA and design primers according to the mRNA sequence for quantitative PCR analysis. mRNA immunogenicity is proportional to the number of mRNA copies precipitated by magnetic beads.

Chain of T7 Enzyme Mix (P00573 whole entry): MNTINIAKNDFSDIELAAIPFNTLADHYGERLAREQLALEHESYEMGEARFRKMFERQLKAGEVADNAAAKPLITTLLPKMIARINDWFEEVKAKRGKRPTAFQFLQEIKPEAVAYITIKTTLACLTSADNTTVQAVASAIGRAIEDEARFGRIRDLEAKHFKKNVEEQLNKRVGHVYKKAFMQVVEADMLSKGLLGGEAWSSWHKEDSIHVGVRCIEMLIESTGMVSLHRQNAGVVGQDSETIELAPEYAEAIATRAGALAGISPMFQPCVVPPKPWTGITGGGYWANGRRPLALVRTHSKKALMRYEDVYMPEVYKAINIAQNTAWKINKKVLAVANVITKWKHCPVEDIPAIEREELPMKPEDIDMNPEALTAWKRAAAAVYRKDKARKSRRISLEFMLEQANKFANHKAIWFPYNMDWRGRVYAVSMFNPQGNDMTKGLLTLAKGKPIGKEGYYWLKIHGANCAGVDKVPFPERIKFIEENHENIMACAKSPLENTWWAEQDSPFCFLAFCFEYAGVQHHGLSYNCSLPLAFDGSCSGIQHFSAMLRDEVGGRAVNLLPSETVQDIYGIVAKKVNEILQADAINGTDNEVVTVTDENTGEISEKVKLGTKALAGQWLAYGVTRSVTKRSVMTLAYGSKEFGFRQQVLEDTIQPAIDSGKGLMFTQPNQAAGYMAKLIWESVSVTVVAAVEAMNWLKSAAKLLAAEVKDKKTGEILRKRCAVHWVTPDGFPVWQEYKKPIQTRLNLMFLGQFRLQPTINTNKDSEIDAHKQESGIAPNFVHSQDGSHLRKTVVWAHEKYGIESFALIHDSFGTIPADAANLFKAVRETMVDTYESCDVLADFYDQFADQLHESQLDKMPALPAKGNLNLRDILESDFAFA

## CO[C@@H]1[C@H](OP(=O)(O)OC[C@H]2O[C@@H](n3cnc4c(N)ncnc43)[C@H](OC)[C@@H]2O)[C@@H](COP(=O)(O)OP(=O)(O)OP(=O)([O-])OC[C@H]2O[C@@H](n3c[n+](C)c4c(=O)[nH]c(N)nc43)[C@H](O)[C@@H]2O)O[C@H]1n1ccc(=O)[nH]c1=O [Cap analog 8, m7G(5′)ppp(5′)(2′OMeU)p(2′OMeA)]
mRNA
  mRNA capping rates when using different Cap structures: 94.79%
T7 Enzyme Mix
  Mass of final product obtained from 1 ml mRNA synthesis reaction system: 5.3 mg
[1]
  Intracellular immunogenicity of mRNA when using different Cap structures: 0.31

## CO[C@@H]1[C@H](O)[C@@H](COP(=O)(O)O[C@H]2[C@@H](OC)[C@H](n3cnc4c(N)ncnc43)O[C@@H]2COP(=O)(O)OP(=O)(O)OP(=O)([O-])OC[C@H]2O[C@@H](n3c[n+](C)c4c(=O)[nH]c(N)nc43)[C@H](O)[C@@H]2O)O[C@H]1n1ccc(N)nc1=O [Cap analog 9, m7G(5′)ppp(5′)(2′OMeA)p(2′OMeC)]
mRNA
  mRNA capping rates when using different Cap structures: 94.73%
T7 Enzyme Mix
  Mass of final product obtained from 1 ml mRNA synthesis reaction system: 4.8 mg
[1]
  Intracellular immunogenicity of mRNA when using different Cap structures: 0.4

## CO[C@@H]1[C@H](O)[C@@H](COP(=O)(O)O[C@H]2[C@@H](OC)[C@H](n3cnc4c(=O)[nH]c(N)nc43)O[C@@H]2COP(=O)(O)OP(=O)(O)OP(=O)([O-])OC[C@H]2O[C@@H](n3c[n+](C)c4c(=O)[nH]c(N)nc43)[C@H](O)[C@@H]2O)O[C@H]1n1ccc(N)nc1=O [Cap analog 10, m7G(5′)ppp(5′)(2′OMeG)p(2′OMeC)]
mRNA
  mRNA capping rates when using different Cap structures: 94.93%
T7 Enzyme Mix
  Mass of final product obtained from 1 ml mRNA synthesis reaction system: 6.0 mg
[1]
  Intracellular immunogenicity of mRNA when using different Cap structures: 0.18

## CO[C@@H]1[C@H](O)[C@@H](COP(=O)(O)O[C@H]2[C@@H](OC)[C@H](n3ccc(N)nc3=O)O[C@@H]2COP(=O)(O)OP(=O)(O)OP(=O)([O-])OC[C@H]2O[C@@H](n3c[n+](C)c4c(=O)[nH]c(N)nc43)[C@H](O)[C@@H]2O)O[C@H]1n1ccc(N)nc1=O [Cap analog 11, m7G(5′)ppp(5′)(2′OMeC)p(2′OMeC)]
mRNA
  mRNA capping rates when using different Cap structures: 95.2%
T7 Enzyme Mix
  Mass of final product obtained from 1 ml mRNA synthesis reaction system: 4.7 mg
[1]
  Intracellular immunogenicity of mRNA when using different Cap structures: 0.31

## CO[C@@H]1[C@H](O)[C@@H](COP(=O)(O)O[C@H]2[C@@H](OC)[C@H](n3ccc(=O)[nH]c3=O)O[C@@H]2COP(=O)(O)OP(=O)(O)OP(=O)([O-])OC[C@H]2O[C@@H](n3c[n+](C)c4c(=O)[nH]c(N)nc43)[C@H](O)[C@@H]2O)O[C@H]1n1ccc(N)nc1=O [Cap analog 12, m7G(5′)ppp(5′)(2′OMeU)p(2′OMeC)]
mRNA
  mRNA capping rates when using different Cap structures: 94.86%
T7 Enzyme Mix
  Mass of final product obtained from 1 ml mRNA synthesis reaction system: 4.9 mg
[1]
  Intracellular immunogenicity of mRNA when using different Cap structures: 0.19

## CO[C@@H]1[C@H](O)[C@@H](COP(=O)(O)O[C@H]2[C@@H](OC)[C@H](n3cnc4c(N)ncnc43)O[C@@H]2COP(=O)(O)OP(=O)(O)OP(=O)([O-])OC[C@H]2O[C@@H](n3c[n+](C)c4c(=O)[nH]c(N)nc43)[C@H](O)[C@@H]2O)O[C@H]1n1ccc(=O)[nH]c1=O [Cap analog 13, m7G(5′)ppp(5′)(2′OMeA)p(2′OMeU)]
mRNA
  mRNA capping rates when using different Cap structures: 94.77%
T7 Enzyme Mix
  Mass of final product obtained from 1 ml mRNA synthesis reaction system: 5.1 mg
[1]
  Intracellular immunogenicity of mRNA when using different Cap structures: 0.23

## CO[C@@H]1[C@H](O)[C@@H](COP(=O)(O)O[C@H]2[C@@H](OC)[C@H](n3cnc4c(=O)[nH]c(N)nc43)O[C@@H]2COP(=O)(O)OP(=O)(O)OP(=O)([O-])OC[C@H]2O[C@@H](n3c[n+](C)c4c(=O)[nH]c(N)nc43)[C@H](O)[C@@H]2O)O[C@H]1n1ccc(=O)[nH]c1=O [Cap analog 14, m7G(5′)ppp(5′)(2′OMeG)p(2′OMeU)]
mRNA
  mRNA capping rates when using different Cap structures: 94.82%
T7 Enzyme Mix
  Mass of final product obtained from 1 ml mRNA synthesis reaction system: 5.5 mg
[1]
  Intracellular immunogenicity of mRNA when using different Cap structures: 0.35

## CO[C@@H]1[C@H](O)[C@@H](COP(=O)(O)O[C@H]2[C@@H](OC)[C@H](n3ccc(N)nc3=O)O[C@@H]2COP(=O)(O)OP(=O)(O)OP(=O)([O-])OC[C@H]2O[C@@H](n3c[n+](C)c4c(=O)[nH]c(N)nc43)[C@H](O)[C@@H]2O)O[C@H]1n1ccc(=O)[nH]c1=O [Cap analog 15, m7G(5′)ppp(5′)(2′OMeC)p(2′OMeU)]
mRNA
  mRNA capping rates when using different Cap structures: 94.83%
T7 Enzyme Mix
  Mass of final product obtained from 1 ml mRNA synthesis reaction system: 4.6 mg
[1]
  Intracellular immunogenicity of mRNA when using different Cap structures: 0.34

## CO[C@@H]1[C@H](O)[C@@H](COP(=O)(O)O[C@H]2[C@@H](OC)[C@H](n3ccc(=O)[nH]c3=O)O[C@@H]2COP(=O)(O)OP(=O)(O)OP(=O)([O-])OC[C@H]2O[C@@H](n3c[n+](C)c4c(=O)[nH]c(N)nc43)[C@H](O)[C@@H]2O)O[C@H]1n1ccc(=O)[nH]c1=O [Cap analog 16, m7G(5′)ppp(5′)(2′OMeU)p(2′OMeU)]
mRNA
  mRNA capping rates when using different Cap structures: 94.84%
T7 Enzyme Mix
  Mass of final product obtained from 1 ml mRNA synthesis reaction system: 4.2 mg
[1]
  Intracellular immunogenicity of mRNA when using different Cap structures: 0.48

## CO[C@@H]1[C@H](O)[C@@H](COP(=O)(O)O[C@H]2[C@@H](OC)[C@H](n3cnc4c(N)ncnc43)O[C@@H]2COP(=O)(O)OP(=O)(O)OP(=O)([O-])OC[C@H]2O[C@@H](n3c[n+](C)c4c(=O)[nH]c(N)nc43)[C@H](O)[C@@H]2OC)O[C@H]1n1cnc2c(=O)[nH]c(N)nc21 [Cap analog 17, 3-O-Me-m7G(5′)ppp(5′)(2′OMeA)p(2′OMeG)]
mRNA
  mRNA capping rates when using different Cap structures: 94.91%
T7 Enzyme Mix
  Mass of final product obtained from 1 ml mRNA synthesis reaction system: 4.7 mg
[1]
  Intracellular immunogenicity of mRNA when using different Cap structures: 0.44

## CO[C@@H]1[C@H](O)[C@@H](COP(=O)(O)O[C@H]2[C@@H](OC)[C@H](n3cnc4c(=O)[nH]c(N)nc43)O[C@@H]2COP(=O)(O)OP(=O)(O)OP(=O)([O-])OC[C@H]2O[C@@H](n3c[n+](C)c4c(=O)[nH]c(N)nc43)[C@H](O)[C@@H]2OC)O[C@H]1n1cnc2c(=O)[nH]c(N)nc21 [Cap analog 18, 3-O-Me-m7G(5′)ppp(5′)(2′OMeG)p(2′OMeG)]
mRNA
  mRNA capping rates when using different Cap structures: 94.98%
T7 Enzyme Mix
  Mass of final product obtained from 1 ml mRNA synthesis reaction system: 4.1 mg
[1]
  Intracellular immunogenicity of mRNA when using different Cap structures: 0.31

## CO[C@@H]1[C@H](OP(=O)(O)OC[C@H]2O[C@@H](n3cnc4c(=O)[nH]c(N)nc43)[C@H](OC)[C@@H]2O)[C@@H](COP(=O)(O)OP(=O)(O)OP(=O)([O-])OC[C@H]2O[C@@H](n3c[n+](C)c4c(=O)[nH]c(N)nc43)[C@H](O)[C@@H]2OC)O[C@H]1n1ccc(N)nc1=O [Cap analog 19, 3-O-Me-m7G(5′)ppp(5′)(2′OMeC)p(2′OMeG)]
mRNA
  mRNA capping rates when using different Cap structures: 95%
T7 Enzyme Mix
  Mass of final product obtained from 1 ml mRNA synthesis reaction system: 4.4 mg
[1]
  Intracellular immunogenicity of mRNA when using different Cap structures: 0.26

## CO[C@@H]1[C@H](OP(=O)(O)OC[C@H]2O[C@@H](n3cnc4c(=O)[nH]c(N)nc43)[C@H](OC)[C@@H]2O)[C@@H](COP(=O)(O)OP(=O)(O)OP(=O)([O-])OC[C@H]2O[C@@H](n3c[n+](C)c4c(=O)[nH]c(N)nc43)[C@H](O)[C@@H]2OC)O[C@H]1n1ccc(=O)[nH]c1=O [Cap analog 20, 3-O-Me-m7G(5′)ppp(5′)(2′OMeU)p(2′OMeG)]
mRNA
  mRNA capping rates when using different Cap structures: 94.42%
T7 Enzyme Mix
  Mass of final product obtained from 1 ml mRNA synthesis reaction system: 4.6 mg
[1]
  Intracellular immunogenicity of mRNA when using different Cap structures: 0.51

## CO[C@@H]1[C@H](O)[C@@H](COP(=O)(O)O[C@H]2[C@@H](OC)[C@H](n3cnc4c(N)ncnc43)O[C@@H]2COP(=O)(O)OP(=O)(O)OP(=O)([O-])OC[C@H]2O[C@@H](n3c[n+](C)c4c(=O)[nH]c(N)nc43)[C@H](O)[C@@H]2OC)O[C@H]1n1cnc2c(N)ncnc21 [Cap analog 21, 3-O-Me-m7G(5′)ppp(5′)(2′OMeA)p(2′OMeA)]
mRNA
  mRNA capping rates when using different Cap structures: 94.55%
T7 Enzyme Mix
  Mass of final product obtained from 1 ml mRNA synthesis reaction system: 4.8 mg
[1]
  Intracellular immunogenicity of mRNA when using different Cap structures: 0.15
